Entries after “also recorded” stand apart in the source; their conditions may differ.
How the values were obtained:
Test in all cases: Serotonin-receptor binding assay
Conditions in all cases: 10 μM and 0.1 μM
5-HT7 receptor = 5-HT7 receptor (Homo sapiens, UniProt P34969)
Source text: (§1) The methods employed in this study have been adapted from the scientific literature to maximize reliability and reproducibility. The experiments include contacting a serotonin type 1A, 1B, 1D, 2A, 2B, 2C, 3, 4, 5A, 6, and 7 receptor with a test compound and comparing the level of binding of serotonin or a control compound (e.g., fluphenazine) with that serotonin type 1A, 1B, 1D, 2A, 2B, 2C, 3, 4, 5A, 6, and 7 receptor with the level of serotonin binding or control compound binding with an otherwise identical serotonin type 1A, 1B, 1D, 2A, 2B, 2C, 3, 4, 5A, 6, and 7 receptor not contacted with the test compound. […] The skilled artisan would also appreciate, in view of the disclosure provided herein, that standard binding assays known in the art, or those to be developed in the future, can be used to assess the binding of serotonin or a control compound with a serotonin type 1A, 1B, 1D, 2A, 2B, 2C, 3, 4, 5A, 6, and 7 receptor in the presence or absence of the test compound to identify a useful compound.
(§2) ICI-735 and fluphenazine were tested for selective binding to 1A, 1B, 1D, 2A, 2B, 2C, 3, 4, 5A, 6, and 7 receptors at concentrations of 10 μM and 0.1 μM.

5-HT2A receptor = 5-HT2A receptor (Homo sapiens, UniProt P28223)
Source text: as §1, §2

5-HT1B receptor = 5-HT1B receptor (Homo sapiens, UniProt P28222)
Source text: as §1, §2

Sequence of 5-HT7 receptor (P34969 whole entry): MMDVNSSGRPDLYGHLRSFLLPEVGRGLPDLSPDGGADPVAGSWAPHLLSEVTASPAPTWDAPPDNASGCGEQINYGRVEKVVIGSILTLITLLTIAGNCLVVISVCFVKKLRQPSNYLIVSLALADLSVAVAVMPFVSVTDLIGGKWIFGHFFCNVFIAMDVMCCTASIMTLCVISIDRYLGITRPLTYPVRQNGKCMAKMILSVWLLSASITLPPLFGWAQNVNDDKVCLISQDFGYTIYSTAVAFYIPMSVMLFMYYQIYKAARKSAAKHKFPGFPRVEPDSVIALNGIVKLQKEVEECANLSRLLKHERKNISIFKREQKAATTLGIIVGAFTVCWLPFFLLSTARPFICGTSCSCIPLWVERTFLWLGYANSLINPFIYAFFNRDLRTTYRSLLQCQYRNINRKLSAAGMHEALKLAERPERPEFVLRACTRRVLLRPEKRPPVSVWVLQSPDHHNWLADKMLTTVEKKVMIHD
Sequence of 5-HT1B receptor (P28222 whole entry): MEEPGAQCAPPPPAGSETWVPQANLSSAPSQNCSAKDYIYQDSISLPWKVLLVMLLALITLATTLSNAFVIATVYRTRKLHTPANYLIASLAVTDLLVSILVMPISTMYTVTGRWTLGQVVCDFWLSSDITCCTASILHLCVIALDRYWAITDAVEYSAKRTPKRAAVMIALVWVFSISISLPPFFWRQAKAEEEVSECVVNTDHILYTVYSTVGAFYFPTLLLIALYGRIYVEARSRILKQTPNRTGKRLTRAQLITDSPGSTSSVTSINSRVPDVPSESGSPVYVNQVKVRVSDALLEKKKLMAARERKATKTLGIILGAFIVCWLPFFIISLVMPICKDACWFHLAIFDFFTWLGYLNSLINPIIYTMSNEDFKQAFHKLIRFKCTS
Sequence of 5-HT2A receptor (P28223 whole entry): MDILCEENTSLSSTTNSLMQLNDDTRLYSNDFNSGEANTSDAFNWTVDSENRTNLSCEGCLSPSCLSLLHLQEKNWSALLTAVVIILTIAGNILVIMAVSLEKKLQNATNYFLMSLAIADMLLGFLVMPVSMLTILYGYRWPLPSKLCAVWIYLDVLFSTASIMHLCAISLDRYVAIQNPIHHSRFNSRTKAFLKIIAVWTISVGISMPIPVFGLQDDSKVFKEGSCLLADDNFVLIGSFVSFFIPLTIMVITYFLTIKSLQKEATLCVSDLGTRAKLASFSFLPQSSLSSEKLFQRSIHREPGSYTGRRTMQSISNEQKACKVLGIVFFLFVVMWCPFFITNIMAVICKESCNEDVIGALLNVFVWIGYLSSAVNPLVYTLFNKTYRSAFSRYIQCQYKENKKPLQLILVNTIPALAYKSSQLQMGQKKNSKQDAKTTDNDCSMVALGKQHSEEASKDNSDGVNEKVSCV

Q: What does the source list for NCC(=O)NCCN1CCN(CCCN2c3ccccc3Sc3ccc(C(F)(F)F)cc32)CC1 [ICI-735]?
A: binding to 5-HT7 receptor as compared to fluphenazine (5-HT7 receptor): significant increase activity; also recorded: increased binding; binding to 5-HT2A receptor as compared to fluphenazine (5-HT2A receptor): decrease activity; also recorded: decreased binding; binding to 5-HT1B receptor as compared to fluphenazine (5-HT1B receptor): significant increase activity; also recorded: increased binding
